Measured values from patent publication US9096593B2, “Compounds and methods for kinase modulation, and indications therefor” (Plexxikon Inc., priority 2009, dated 2015).

Assay: Turbidity assay of relative solubility in aqueous buffers
Assay type: physicochemical
Details: for turbidity threshold (L, M, H) 1.4: pH 1.4 as headed (method: SGF pH 1.5); for turbidity threshold (L, M, H) 4.5: pH 4.5 (SIF); for turbidity threshold (L, M, H) 6.8: pH 6.8 (SIF); for turbidity threshold (L, M, H) 7.4: pH 7.4 (HEPES)
Protocol: As an indication of relative solubility, the turbidity of compounds in aqueous solutions is assessed. To assess possible compound properties in different physiological compartments, such as stomach, intestine, and blood, a series of aqueous buffers with varying pH is used. Thus each compound is diluted into four different physiologically relevant buffers and solution turbidity is measured by spectrophotometry.
Compounds are dissolved at a concentration of 25 mM in dimethyl sulfoxide, then serially diluted 1:1 into a 96 well plate, diluting 10 times in pure dimethyl sulfoxide, with the final well of each row a dimethyl sulfoxide blank. In an assay plate, 99 μL of appropriate buffer is added to each well, and 1 μL of each sample dilution is added to the buffer, achieving a range of final total concentrations in aqueous solutions having different pH. The buffers used are Simulated Gastric Fluid (SGF-pH 1.5) 0.5M NaCl, pH 1.5; Simulated Intestinal fluid (SIF-pH 4.5 and pH 6.8) 0.05M NaH2PO4, pH 4.5 and 6.8; and Hepes Buffer (HEPES-pH 7.4) 10 mM HEPES, 150 mM NaCl, pH 7.4. Control compounds pyrene, estriol and propranolol HCl are also assessed. Plates are spun and then mixed for 1 minute, and the absorbance is read using a Tecan Safire II to read wavelengths in the visible range (490, 535, and 650 nm) at four locations per well, reflecting the degree of turbidity present. The average optical density for each wavelength in each well is graphed vs. compound concentration, and the concentration at which the curve crosses a threshold O.D. of 0.01 for each wavelength is reported as the endpoint turbidity assay result. The average of the three wavelengths is used to compare turbidity of compounds. Compounds are considered to have low solubility if the threshold concentration is <31.3 μM, moderate solubility if the threshold concentration is 31.3 μM to 250 μM, and high solubility if the threshold concentration is >250 μM.

SMILES: Fc1cc(Cc2c[nH]c3ncc(Cl)cc23)cnc1NCc1ccc(C(F)(F)F)nc1 [Compound P-2172, [5-(5-Chloro-1H-pyrrolo[2,3-b]pyridin-3-ylmethyl)-3-fluoro-pyridin-2-yl]-(6-trifluoromethyl-pyridin-3-ylmethyl)-amine]
- turbidity threshold (L, M, H) 1.4: H (high solubility if the threshold concentration is >250 μM)
- turbidity threshold (L, M, H) 4.5: L (low solubility if the threshold concentration is <31.3 μM)
- turbidity threshold (L, M, H) 6.8: L (low solubility if the threshold concentration is <31.3 μM)
- turbidity threshold (L, M, H) 7.4: L (low solubility if the threshold concentration is <31.3 μM)

SMILES: Cc1cc(CNc2ccc(Cc3c[nH]c4ncc(Cl)cc34)c(F)n2)ccn1 [Compound P-2075, [5-(5-Chloro-1H-pyrrolo[2,3-b]pyridin-3-ylmethyl)-6-fluoro-pyridin-2-yl]-(2-methyl-pyridin-4-ylmethyl)-amine]
- turbidity threshold (L, M, H) 1.4: H (high solubility if the threshold concentration is >250 μM)
- turbidity threshold (L, M, H) 4.5: M (moderate solubility if the threshold concentration is 31.3 μM to 250 μM)
- turbidity threshold (L, M, H) 6.8: L (low solubility if the threshold concentration is <31.3 μM)
- turbidity threshold (L, M, H) 7.4: M (moderate solubility if the threshold concentration is 31.3 μM to 250 μM)

SMILES: COc1ccc(CNc2ccc(Cc3c[nH]c4ncc(F)cc34)c(F)n2)cn1 [Compound P-1622, [6-Fluoro-5-(5-fluoro-1H-pyrrolo[2,3-b]pyridin-3-ylmethyl)-pyridin-2-yl]-(6-methoxy-pyridin-3-ylmethyl)-amine]
- turbidity threshold (L, M, H) 1.4: H (high solubility if the threshold concentration is >250 μM)
- turbidity threshold (L, M, H) 4.5: M (moderate solubility if the threshold concentration is 31.3 μM to 250 μM)
- turbidity threshold (L, M, H) 6.8: M (moderate solubility if the threshold concentration is 31.3 μM to 250 μM)
- turbidity threshold (L, M, H) 7.4: M (moderate solubility if the threshold concentration is 31.3 μM to 250 μM)

SMILES: COc1ncc(F)cc1CNc1ccc(Cc2c[nH]c3ncc(NC(C)=O)cc23)c(F)n1 [Compound P-1669, N-(3-{2-fluoro-6-[(5-fluoro-2-methoxy-pyridin-3-ylmethyl)-amino]-pyridin-3-ylmethyl}-1H-pyrrolo[2,3-b]pyridin-5-yl)-acetamide]
- turbidity threshold (L, M, H) 1.4: M (moderate solubility if the threshold concentration is 31.3 μM to 250 μM)
- turbidity threshold (L, M, H) 4.5: M (moderate solubility if the threshold concentration is 31.3 μM to 250 μM)
- turbidity threshold (L, M, H) 6.8: M (moderate solubility if the threshold concentration is 31.3 μM to 250 μM)
- turbidity threshold (L, M, H) 7.4: M (moderate solubility if the threshold concentration is 31.3 μM to 250 μM)

SMILES: COc1cnc2[nH]cc(Cc3ccc(NCc4cncc(F)c4)nc3F)c2c1 [Compound P-2028, [6-Fluoro-5-(5-methoxy-1H-pyrrolo[2,3-b]pyridin-3-ylmethyl)-pyridin-2-yl]-(5-fluoro-pyridin-3-ylmethyl)-amine]
- turbidity threshold (L, M, H) 1.4: H (high solubility if the threshold concentration is >250 μM)
- turbidity threshold (L, M, H) 4.5: M (moderate solubility if the threshold concentration is 31.3 μM to 250 μM)
- turbidity threshold (L, M, H) 6.8: M (moderate solubility if the threshold concentration is 31.3 μM to 250 μM)
- turbidity threshold (L, M, H) 7.4: M (moderate solubility if the threshold concentration is 31.3 μM to 250 μM)

SMILES: COc1cc(CNc2ccc(Cc3c[nH]c4ncc(C)cc34)c(F)n2)c(F)cn1 [Compound P-2071, (5-Fluoro-2-methoxy-pyridin-4-ylmethyl)-[6-fluoro-5-(5-methyl-1H-pyrrolo[2,3-b]pyridin-3-ylmethyl)-pyridin-2-yl]-amine]
- turbidity threshold (L, M, H) 1.4: M (moderate solubility if the threshold concentration is 31.3 μM to 250 μM)
- turbidity threshold (L, M, H) 4.5: L (low solubility if the threshold concentration is <31.3 μM)
- turbidity threshold (L, M, H) 6.8: L (low solubility if the threshold concentration is <31.3 μM)
- turbidity threshold (L, M, H) 7.4: L (low solubility if the threshold concentration is <31.3 μM)

SMILES: CS(=O)(=O)Nc1cnc2[nH]cc(Cc3ccc(NCc4ccc(Cl)nc4)nc3F)c2c1 [Compound P-1679, N-(3-{6-[(6-Chloro-pyridin-3-ylmethyl)-amino]-2-fluoro-pyridin-3-ylmethyl}-1H-pyrrolo[2,3-b]pyridin-5-yl)-methanesulfonamide]
- turbidity threshold (L, M, H) 1.4: M (moderate solubility if the threshold concentration is 31.3 μM to 250 μM)
- turbidity threshold (L, M, H) 4.5: L (low solubility if the threshold concentration is <31.3 μM)
- turbidity threshold (L, M, H) 6.8: L (low solubility if the threshold concentration is <31.3 μM)
- turbidity threshold (L, M, H) 7.4: L (low solubility if the threshold concentration is <31.3 μM)

SMILES: COc1ccc(CNc2ncc(Cc3c[nH]c4ncc(C)cc34)cc2F)cn1 [Compound P-1562, [3-Fluoro-5-(5-methyl-1H-pyrrolo[2,3-b]pyridin-3-ylmethyl)-pyridin-2-yl]-(6-methoxy-pyridin-3-ylmethyl)-amine]
- turbidity threshold (L, M, H) 1.4: H (high solubility if the threshold concentration is >250 μM)
- turbidity threshold (L, M, H) 4.5: H (high solubility if the threshold concentration is >250 μM)
- turbidity threshold (L, M, H) 6.8: M (moderate solubility if the threshold concentration is 31.3 μM to 250 μM)
- turbidity threshold (L, M, H) 7.4: M (moderate solubility if the threshold concentration is 31.3 μM to 250 μM)

SMILES: Cc1cnc2[nH]cc(Cc3ccc(NCc4cnccc4C(F)(F)F)nc3F)c2c1 [Compound P-2062, [6-Fluoro-5-(5-methyl-1H-pyrrolo[2,3-b]pyridin-3-ylmethyl)-pyridin-2-yl]-(4-trifluoromethyl-pyridin-3-ylmethyl)-amine]
- turbidity threshold (L, M, H) 1.4: H (high solubility if the threshold concentration is >250 μM)
- turbidity threshold (L, M, H) 4.5: L (low solubility if the threshold concentration is <31.3 μM)
- turbidity threshold (L, M, H) 6.8: L (low solubility if the threshold concentration is <31.3 μM)
- turbidity threshold (L, M, H) 7.4: L (low solubility if the threshold concentration is <31.3 μM)

SMILES: COc1ncc(F)cc1CNc1ncc(Cc2c[nH]c3ncc(Cl)cc23)cn1 [Compound P-2064, [5-(5-Chloro-1H-pyrrolo[2,3-b]pyridin-3-ylmethyl)-pyrimidin-2-yl]-(5-fluoro-2-methoxy-pyridin-3-ylmethyl)-amine]
- turbidity threshold (L, M, H) 1.4: H (high solubility if the threshold concentration is >250 μM)
- turbidity threshold (L, M, H) 4.5: M (moderate solubility if the threshold concentration is 31.3 μM to 250 μM)
- turbidity threshold (L, M, H) 6.8: L (low solubility if the threshold concentration is <31.3 μM)
- turbidity threshold (L, M, H) 7.4: L (low solubility if the threshold concentration is <31.3 μM)

SMILES: CCS(=O)(=O)Nc1ccccc1CNc1ccc(Cc2c[nH]c3ncc(C)cc23)c(F)n1 [Compound P-2198, Ethanesulfonic acid (2-{[6-fluoro-5-(5-methyl-1H-pyrrolo[2,3-b]pyridin-3-ylmethyl)-pyridin-2-ylamino]-methyl}-phenyl)-amide]
- turbidity threshold (L, M, H) 1.4: M (moderate solubility if the threshold concentration is 31.3 μM to 250 μM)
- turbidity threshold (L, M, H) 4.5: L (low solubility if the threshold concentration is <31.3 μM)
- turbidity threshold (L, M, H) 6.8: L (low solubility if the threshold concentration is <31.3 μM)
- turbidity threshold (L, M, H) 7.4: L (low solubility if the threshold concentration is <31.3 μM)

SMILES: COc1ncccc1CNc1ccc(Cc2c[nH]c3ncccc23)c(F)n1 [Compound P-2045, [6-Fluoro-5-(1H-pyrrolo[2,3-b]pyridin-3-ylmethyl)-pyridin-2-yl]-(2-methoxy-pyridin-3-ylmethyl)-amine]
- turbidity threshold (L, M, H) 1.4: H (high solubility if the threshold concentration is >250 μM)
- turbidity threshold (L, M, H) 4.5: M (moderate solubility if the threshold concentration is 31.3 μM to 250 μM)
- turbidity threshold (L, M, H) 6.8: M (moderate solubility if the threshold concentration is 31.3 μM to 250 μM)
- turbidity threshold (L, M, H) 7.4: M (moderate solubility if the threshold concentration is 31.3 μM to 250 μM)

SMILES: COc1ncc(F)cc1CNc1ncc(Cc2c[nH]c3ncc(C)cc23)cn1 [Compound P-2061, (5-Fluoro-2-methoxy-pyridin-3-ylmethyl)-[5-(5-methyl-1H-pyrrolo[2,3-b]pyridin-3-ylmethyl)-pyrimidin-2-yl]-amine]
- turbidity threshold (L, M, H) 1.4: H (high solubility if the threshold concentration is >250 μM)
- turbidity threshold (L, M, H) 4.5: M (moderate solubility if the threshold concentration is 31.3 μM to 250 μM)
- turbidity threshold (L, M, H) 6.8: M (moderate solubility if the threshold concentration is 31.3 μM to 250 μM)
- turbidity threshold (L, M, H) 7.4: L (low solubility if the threshold concentration is <31.3 μM)

SMILES: COc1ncccc1CNc1ccc(Cc2c[nH]c3ncc(C)cc23)c(F)n1 [Compound P-2052, [6-Fluoro-5-(5-methyl-1H-pyrrolo[2,3-b]pyridin-3-ylmethyl)-pyridin-2-yl]-(2-methoxy-pyridin-3-ylmethyl)-amine]
- turbidity threshold (L, M, H) 1.4: H (high solubility if the threshold concentration is >250 μM)
- turbidity threshold (L, M, H) 4.5: L (low solubility if the threshold concentration is <31.3 μM)
- turbidity threshold (L, M, H) 6.8: L (low solubility if the threshold concentration is <31.3 μM)
- turbidity threshold (L, M, H) 7.4: L (low solubility if the threshold concentration is <31.3 μM)
